# Data published in article PMC3975964, “Protective effect of a sesamin derivative, 3-bis (3-methoxybenzyl) butane-1, 4-diol on ischemic and hypoxic neuronal injury” (Journal of Biomedical Science, 2014).
# What was measured:
# [1] = test system: IL-1; experiment: Hypoxia-induced IL-1 production (ELISA), BV-2; type: cell-based, murine
# Description: (§1) On the day of experiment, culture media were replaced with glucose-free DMEM, then, gassed with 85% N2, 10% H2, and 5% CO2 for various time periods in the absence or presence of various doses of BBD.
# Cytokines (IL-1β, IL-6) and PGE2 were measured using ELISA kits (R&D, Minneapolis, MN, USA). The absorbance at 450 nm was determined using a microplate reader (spectraMAX 340).
# [2] = test system: PC12 cells; experiment: MTT cell viability under hypoxia, PC12; type: cell-based, rat; settings: hypoxia 30 min, BBD 1 to 20 μM
# Description: Murine BV-2 microglial cell line was maintained in DMEM supplemented with 10% (v/v) FBS, 100 U/ml penicillin and 100 μg/ml streptomycin (P/S) in a humidified incubator under 5% CO2 at 37°C. Rat pheochromacytoma PC12 cell line was maintained in DMEM supplemented with 10% FBS, 5% horse serum, P/S at 37°C under 5% CO2. Confluent cultures were passaged by trypsinization. In all experiments, the cells were treated with BBD immediately before hypoxia. BBD was dissolved in DMSO. The final concentration of DMSO added to cells never exceeded 0.1% (v/v).
# as §1
# Cell viability was measured using blue formazan that was metabolized from colorless 3-(4,5-dimethyl-thiazol-2-yl)-2,5-diphenyl tetrazolium bromide (MTT) by mitochondrial dehydrogenases, which are active only in live cells. PC12 or BV2 cells were preincubated in 24-well plates at a density of 5 × 10^5 cells per well for 24 h. […] One hour later, 200 μl of solubilization solution were added to each well and absorption values read at 540 nm on microtiter plate reader (spectraMAX 340, Molecular Devices, Sunnyvale, CA, USA). Data were expressed as the mean percent of viable cells vs. control.
# [3] = test system: malondialdehyde (MDA) of brain tissue; experiment: Lipid peroxidation (MDA) of ischemic brain tissue; type: in vivo, Sprague–Dawley rats; settings: SD rat brain, BBD 10 mg/kg i.p. 90 min after MCAO
# Description: (§2) Twenty-four male Sprague–Dawley (SD) rats (200~250 gm) were purchased from National Animal Center, Taipei, Taiwan and randomly divided into the control (normal saline), and BBD groups. The experiment was approved by Institutional Animal Care and Use Committee, Taichung Veterans General Hospital (IACUC LA-97490). Rats were injected intraperitoneally (i.p.) with BBD (10 mg/kg) 90 min after MACO experiment. Each SD rat was anesthetized with chlorohydrate (400 mg/kg) i.p. and its body temperature was maintained at 37°C with a heating pad (CMA/150). A midline neck incision was made and the right carotid artery was exposed and separated from the vago-sympathetic trunk. The right carotid artery was loosely encircled with a 4-O suture for later occlusion. The SD rat’s head was placed in a stereotaxic frame (David Kopf, CA, USA) with the nose bar positioned 4.0 mm below the horizontal line. Following a midline incision, the skull was partially removed to expose the right middle cerebral artery. […]
# Lipid peroxidation is quantified by measuring malondialdehyde (MDA) of PC12 cells and brain tissue of SD rats by lipid peroxidation (LPO) assay kit (Cayman). […] MDA levels were assayed by measuring the amount expressed in 5 × 10^5 cells of PC12 and SD brain tissue, and the absorbance at 500 nm was determined using a microplate reader (spectraMAX 340).
# [4] = test system: superoxide dismutase (SOD) activity; experiment: SOD activity of ischemic brain; type: in vivo, Sprague–Dawley rats; settings: SD rat brain, BBD 10 mg/kg i.p. 90 min after MCAO
# Description: as §2, with “artery. The middle cerebral artery was loosely encircled with an 8-O suture for later occlusion. A focal cerebral ischemia was induced by occlusion of the right common carotid artery and the right cerebral artery (MCAO) for 60 min, followed by reperfusion.” for “artery.”
# Superoxide dismutase (SOD) activity was determined by a Superoxide Dismutase assay kit (Cayman, Ann Arbor, MI, USA). […]
# [5] = test system: p38; experiment: Western blot of hypoxia-induced signaling, PC12: p38; type: cell-based, rat; settings: PC12 cells, 10 min hypoxia (Figure 5C), BBD 20 μM
# Description: as §1
# Samples containing 25 μg of protein were separated on 12.5% (w/v) sodium dodecyl sulfate-polyacrylamide gels, and transferred to immobilon polyvinylidenedifluoride membranes (Millipore, Bedford, USA). The membranes were incubated for 2 h with 5% (w/v) dry skim milk in TBST buffer to block non-specific binding, then ERK, p38 JNK, AKT-1, COX-2, caspase-3, β-actin proteins for neuron cells were detected by a chemiluminescence detection system according to the manufacturer’s instructions (ECL, Amersham, Berkshire, UK).
compound,measurement,setting,value
"COc1cccc(CC(CO)C(CO)Cc2cccc(OC)c2)c1 (centres unmarked) [BBD, 3-bis (3-methoxybenzyl) butane-1,4-diol]",hypoxia-induced IL-1 production,"[1]; BV-2 cells, hypoxia 30 min, BBD 1, 10, 20 μM",dose-dependently decreased
same,inhibition of hypoxia-induced IL-1 production,"[1]; hypoxia, concentration not given",40-50%
same,cell viability (MTT) under hypoxia,[2],preserved
same,decrease of MDA level as compared to the ischemia group,[3],6%
same,MDA level,[3]; ischemia group 83 μM,78 µM
same,increase of SOD activity as compared to the ischemia group,[4],24%
same,SOD activity,[4]; ischemia group 68 μ/mL,84 μ/mL
same,suppressed hypoxia induced expression of p38,[5],-10 ± 9%
